Test [1] relates to LN95 cells. Put plainly: Senescence-associated β-galactosidase staining, LN95. As to conditions: 3 days.
Procedure: β-galactosidase activity at suboptimal pH (6.0) was used as a marker to detect cellular senescence[42]. Cells were seeded in four-well chamber slides at a density of 8000-10,000 cells. […] Three days later, the media was removed and cells were fixed with 2% formaldehyde/0.2% glutaraldehyde for 10 min at room temperature, washed with PBS, and then incubated with freshly prepared β-Gal staining solution (Cell Signaling) titrated to pH 6.0. Staining was optimal after incubating with the β-Gal solution at 37 °C for 16–18 h. After staining, the slides were washed twice with PBS, once with absolute methanol, and then mounted with 50% glycerol/PBS. The percentage of β-galactosidase-positive cells were counted with ImageJ using the Cell Counter plugin. A total of nine images containing 100–300 cells were scored to determine the percentages of positive cells.
The next test concerns LN95-D3 xenografts. Put plainly: Growth of LN95-D3 CRPC xenografts in castrated male NSG mice. It counts as in vivo. The settings on record: for Tumor volume, individual animals (Fig. 7b): ATRA 5mg, in mm³ (unit assumed).
In test [2] the test system is LN95 cells. Put plainly: Cell cycle analysis by flow cytometry, LN95. The settings on record: LN95, ATRA 5 and 10 μM, EPI-002 25 μM, 24 or 48 h.
Procedure: After treatments, the cells were labeled with BrdU (10 μM) for 2 h and then trypsinized, washed, and fixed in 70% EtOH/PBS at −20 °C. Approximately 2.5–5.0 × 10^5 of fixed cells were labeled with fluorescein (FITC)-conjugated anti-BrdU antibody (B44; BD Biosciences) and the DNA content was stained with 7-AAD (Sigma). The data were collected with a BD FACSCalibur flow cytometer (BD Biosciences). FITC and 7-AAD fluorescence were detected in the FL1 and FL3 channels, respectively, using CellQuest Pro and analyzed by FlowJo V10 software (Ashland, Oregon). Pre-gating was performed on all samples by plotting FL3-W × FL3-H to exclude doublets from the analysis.
Test [3] deals with Ki-67, PSA and AR in LN95-D3 xenografts. Put plainly: Immunohistochemistry of LN95-D3 xenografts (Ki-67, PSA, AR). Format: in vivo, mice. An excerpt: Fig. 8 Immunohistochemistry of LN95-D3 xenografts. a Representative images showing the histomorphology and expression of Ki-67, PSA, and AR from harvested tumors. Scale bars represent 100 µm. Statistical analysis for b the percentage of Ki-67-positive tumor cells and for the expression of c PSA and d AR. Error bars represent the mean ± s.d.
Sections were cut from formalin-fixed, paraffin-embedded tumor tissue at a thickness of 5 µm, deparaffinized in xylene, and then rehydrated in alcohols and distilled water. Endogenous peroxidase was blocked by incubating with a 3% hydrogen peroxide solution for 5 min. […] PSA was detected using a monoclonal mouse anti-human PSA antibody concentrate (ER-PR8; Dako). A negative control without the primary antibody was included for each sample on the same slide. Antigen was detected with 3,3-diaminobenzidine (DAB) and hematoxylin was used for counterstaining. Images were captured on an Axio Imager M2 microscope (Zeiss) at ×200 magnification. The percentage of Ki-67-positive cells was determined with ImageJ using the Cell Counter plugin. At least 1000 cells were scored from three images of representative tumors for each treatment group. The intensity of DAB staining for PSA was quantified by ImageJ using color deconvolution and measuring the mean gray value for the DAB image, where optical density = log(max intensity/mean intensity), and a max intensity of 255 for an 8-bit image.

Test [4] has as its target T1, Gal4-ARN fragments and Gal4-AR234–391 constructs (Homo sapiens, UniProt P10275).
T1 construct: expressed in transfected cells; host or cells: LNCaP
As to the kind of experiment: Transactivation assay with Gal4-ARN fragments and Gal4-AR234–391 proline to glycine mutants. Format: cell-based. As to conditions: juglone 20 µM, IL-6 50 ng/mL, 24 h. How it is done:
(§1) Fig. 3 Pin1 interacts with the AR NTD and regulates transactivation. a, b Transactivation assays performed in LNCaP cells expressing a vector encoding the human AR NTD fused to a Gal4 DNA-binding domain (Gal4-ARN). […] Input samples show Pin1 expression from lysates before the pull-down. i Co-immunoprecipitation assay showing AR protein co-immunoprecipitated with STAT3 from LNCaP cells incubated with EPI-002 (EPI, 35 μM), juglone (JUG, 30 μM), or vehicle (VEH, DMSO), and IL-6 (50 ng/mL) for 6 h. j, k Levels of phosphorylated MAPK (isoforms p44 and p42) and phosphorylated STAT3 (Tyr705 and Ser727) from LNCaP cells pre-treated with juglone (20 µM) and then stimulated with IL-6 (50 ng/mL) for 15 min. Error bars show the mean ± s.e.m. *P < 0.05, **P < 0.01, ***P < 0.001; ns not significant.

The target in test [5] is T2, Gal4-ARN fragments and Gal4-AR234–391 constructs (Homo sapiens, UniProt P10275, P259G).
T2 construct: expressed in transfected cells; host or cells: LNCaP
The test is described as above. It counts as cell-based. As to conditions: juglone 20 µM, IL-6 50 ng/mL, 24 h. The procedure:
as §1

The subject of test [6] is Gal4-ARN fragments and Gal4-AR234–391 constructs. The description is as above. Format: cell-based, human. The settings on record: juglone 20 µM, IL-6 50 ng/mL, 24 h. The procedure: as §1
In test [7] the target is T3, Gal4-ARN fragments and Gal4-AR234–391 constructs (Homo sapiens, UniProt P10275, P311G).
T3 construct: expressed in transfected cells; host or cells: LNCaP
The description is as above. Format: cell-based. The settings on record: juglone 20 µM, IL-6 50 ng/mL, 24 h. How it is done: as §1

For a further test, the target named is T4, full-length AR (Homo sapiens, UniProt P10275, T878A).
T4 construct: Transcriptional activity of full-length AR was assessed in LNCaP cells; endogenous in cells; host or cells: LNCaP
T4 sequence (P10275 1-920 T878A): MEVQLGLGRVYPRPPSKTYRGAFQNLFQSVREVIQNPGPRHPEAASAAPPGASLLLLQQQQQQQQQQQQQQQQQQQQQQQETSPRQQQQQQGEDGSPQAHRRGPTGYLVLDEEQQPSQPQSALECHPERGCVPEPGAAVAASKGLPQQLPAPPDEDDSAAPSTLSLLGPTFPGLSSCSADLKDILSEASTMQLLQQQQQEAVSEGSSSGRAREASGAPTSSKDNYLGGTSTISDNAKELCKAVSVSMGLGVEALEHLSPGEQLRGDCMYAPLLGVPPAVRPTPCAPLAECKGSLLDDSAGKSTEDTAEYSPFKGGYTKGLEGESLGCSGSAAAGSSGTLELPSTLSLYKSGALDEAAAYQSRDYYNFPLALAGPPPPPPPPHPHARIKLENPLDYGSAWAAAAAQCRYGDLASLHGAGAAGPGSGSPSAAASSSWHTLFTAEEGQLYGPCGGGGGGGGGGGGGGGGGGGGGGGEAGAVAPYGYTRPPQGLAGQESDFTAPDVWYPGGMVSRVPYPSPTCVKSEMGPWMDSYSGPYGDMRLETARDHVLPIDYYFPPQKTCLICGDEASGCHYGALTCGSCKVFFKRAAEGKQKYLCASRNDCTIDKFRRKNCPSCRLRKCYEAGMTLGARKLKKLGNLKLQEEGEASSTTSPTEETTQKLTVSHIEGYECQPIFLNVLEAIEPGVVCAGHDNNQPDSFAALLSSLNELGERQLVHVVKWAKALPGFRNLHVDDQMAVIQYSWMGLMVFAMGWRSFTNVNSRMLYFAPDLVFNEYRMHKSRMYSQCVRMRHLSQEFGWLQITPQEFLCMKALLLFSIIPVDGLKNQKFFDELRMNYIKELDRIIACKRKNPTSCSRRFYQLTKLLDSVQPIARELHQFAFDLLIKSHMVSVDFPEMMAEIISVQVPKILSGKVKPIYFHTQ
As to the kind of experiment: PSA(6.1 kb)-luciferase AR-driven reporter assay in LNCaP cells. Format: cell-based. The settings on record: LNCaP, R1881 1 nM, 24 h; read-out: IC50, androgen-induced PSA(6.1 kb)-luciferase activity. (In a reporter assay the amount or activity of a reporter protein is the signal.)

Values joined by “and” are separate entries in the source; they are usually repeats but may differ in a detail not shown here. Equal entries are not always repeated. “Also recorded” adds a separate entry of the source.

Data on two molecules can be found in publication PMC7985297 (Communications Biology, 2021).

T3 sequence (P10275 236-393 P311G): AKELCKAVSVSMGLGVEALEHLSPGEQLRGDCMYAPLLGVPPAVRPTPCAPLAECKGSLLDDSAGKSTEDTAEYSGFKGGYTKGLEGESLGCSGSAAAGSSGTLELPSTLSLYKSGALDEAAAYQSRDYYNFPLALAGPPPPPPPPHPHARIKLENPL
T2 sequence (P10275 236-393 P259G): as the sequence (P10275 236-393 P311G) above, with P24G, G76P counted along it

Take `CC1=C(/C=C/C(C)=C/C=C/C(C)=C/C(=O)O)C(C)(C)CCC1` [ATRA, all-trans retinoic acid]: the “effect on percentage of SA β-gal-positive cells” value in the test on LN95 cells [1] (LN95, ATRA 10 µM) was “significantly increased the percentage of SA β-gal-positive cells for LNCaP and LN95 cells”. In the test with LN95 cells [1] (LN95, ATRA 10 μM, EPI-002 25 μM), the “SA β-gal-positive cells” value is 37%. Besides, the “tumor growth after 21 days of treatment” value in the test with LN95-D3 xenografts (castrated mice, ATRA 5 mg 21-day release pellet, EPI-7170 30 mg/kg daily oral, relative to vehicle/placebo-control) is reported as “significantly reduced”. The “growth of LN95-D3 tumors, pilot study” value in the test with LN95-D3 xenografts (mice bearing ATRA slow-release pellets compared to placebo) is “markedly reduced”. In addition, the “Tumor volume, individual animals (Fig. 7b)” value in the test on LN95-D3 xenografts (treatment duration 0 days) is 24.32 and 14.61 and 31.83 and 56.34 and 20.55 and 20.28 and 50.07 and 32.48; in the test with LN95-D3 xenografts (treatment duration 3 days), 55.84 and 24.48 and 48.26 and 128.17 and 47.08 and 28.39 and 67.63 and 51.78; with LN95-D3 xenografts (treatment duration 6 days), 83.34 and 43.04 and 71.44 and 190.56 and 74.31 and 35.31 and 102.14 and 93.49; in the test with LN95-D3 xenografts (treatment duration 9 days), 133.91 and 53.07 and 85.22 and 295.56 and 122.11 and 47.93 and 142.91 and 132.75; in the test with LN95-D3 xenografts (treatment duration 12 days), 206.68 and 57.46 and 89.96 and 435.8 and 154.08 and 63.14 and 159.59 and 153.66; in the test on LN95-D3 xenografts (treatment duration 15 days), 291.35 and 84.16 and 118.21 and 658.17 and 325.4 and 102.18 and 255.62 and 266.01. For the same molecule, the “Tumor volume, individual animals (Fig. 7b)” value in the test with LN95-D3 xenografts (treatment duration 18 days) is 379.83 and 117.24 and 202.18 and 871.57 and 503.37 and 170.47 and 377.34 and 331.83; with LN95-D3 xenografts (treatment duration 21 days), 564.91 and 139.55 and 232.06 and 1102.95 and 649.08 and 196.67 and 421.71 and 345.48. For the same molecule, the “effect on cell cycle / S phase population” value with LN95 cells [2] was “reduced the S phase population in a dose- and time-dependent manner”. The “effect on number of Ki-67-positive tumor cells” value in test [3] (LN95-D3 xenografts) was “decreased the number of Ki-67-positive tumor cells in xenografts”. For the same molecule, the “levels of AR protein in xenografts (IHC)” value in test [3] (LN95-D3 xenografts) was “decreased slightly”. Further, the “percentage of Ki-67-positive tumor cells (Fig. 8b)” value in test [3] (LN95-D3 xenografts, ATRA 5 mg pellet, EPI-7170 30 mg/kg/d, one value per tumor, listed as CMC ATRA) was 8.32% and 15.81% and 16.91%. For the same molecule, in test [3] (compared to the control), the “effect on PSA expression in xenografts (IHC)” value is “decreased”.

One may read the IC50 as the concentration that gives 50% inhibition. Consider `O=C1C=CC(=O)c2c(O)cccc21` [juglone], for which, in test [4], the “transactivation, AR234-391 (Fig. 3e)” value is 5.441 and 3.73 and 3.732. The “transactivation, Gal4-AR234–391 P257G (Fig. 3f)” value in test [5] was 5.034 and 6.44 and 8.824. In addition, in test [6], the “effect on IL-6-induced transactivation of Gal4-AR234–391 proline to glycine mutants” value is “inhibited the P257G and P309G mutants to levels that were comparable to wild-type; also recorded: had no effect on the P257G/P309G double mutant”; the “effect on IL-6-induced transactivation of Gal4-AR NTD fragments (construct named in the value)” value was “inhibited transactivation of AR 234–391 and intact AR NTD (1–558); also recorded: only had a modest effect on AR 392–558; also recorded: did not inhibit the activity of Gal4DBD (empty vector) or AR 1–233”; the “transactivation, Gal4DBD (Fig. 3f)” value was 0.951 and 0.829 and 0.839. The “transactivation, Gal4-AR234–391 P309G (Fig. 3f)” value in [7] was 4.289 and 4.331 and 7.708. For the same molecule, on full-length AR, the IC50 was determined as 10.9 µM.
